The target of assay [1] is T1, testosterone (T) production in NCI-H295R cells (Homo sapiens, UniProt P05108).
T1 construct: testosterone measured by LC-MS/MS as downstream steroid
T1 sequence (P05108 40-521): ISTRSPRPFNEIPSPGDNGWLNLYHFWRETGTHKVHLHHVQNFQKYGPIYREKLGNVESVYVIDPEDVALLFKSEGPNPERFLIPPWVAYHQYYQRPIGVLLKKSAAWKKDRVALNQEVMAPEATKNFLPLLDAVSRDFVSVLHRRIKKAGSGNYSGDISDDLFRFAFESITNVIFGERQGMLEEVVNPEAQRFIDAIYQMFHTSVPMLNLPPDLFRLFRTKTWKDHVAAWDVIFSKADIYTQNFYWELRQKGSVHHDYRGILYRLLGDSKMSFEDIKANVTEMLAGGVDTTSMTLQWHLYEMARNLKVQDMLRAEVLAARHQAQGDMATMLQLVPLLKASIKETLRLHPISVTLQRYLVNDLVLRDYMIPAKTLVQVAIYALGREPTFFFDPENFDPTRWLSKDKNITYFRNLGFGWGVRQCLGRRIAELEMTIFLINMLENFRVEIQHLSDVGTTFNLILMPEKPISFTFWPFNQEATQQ
Description: H295R Steroid Biosynthesis Inhibition Assay - inhibition of testosterone (T) production in NCI-H295R cells. In kind it is cell-based. The settings on record: 48 h, LC-MS/MS, read-out: Inh. of T IC50. On the procedure:
(§1) Steroid Biosynthesis Inhibition by test compounds in NCI-H295R cells (ATCC) was studied by measuring the cellular production of pregnenolone (P) catalyzed by CYP11A1 and the downstream steroid, testosterone (T). Cells were cultured in Dulbecco's modified eagle's medium F12 (DMEM/F12) with phenol red (Gibco, Cat. No. 11330032) supplemented with 2% UltroserG (Pall, Cat. No. 15950-017, USA), 1% ITS-Premix and 1% penicillin and streptomycin (Hyclone, Cat. No. SV30010, USA). Prior to the assay, cells were thawed and passed 4 times. The maximal passage number used for the assay was 10. For this assay, DMEM/F12 without phenol red supplemented with 10% charcoal-stripped fetal bovine serum (VivaCell, Cat. No. C3830-0500, USA) were used. In a 96-well plate, 60,000 cells/well were plated (90 μL/well) and incubated for 24 h. Test compounds, diluted in a serial dilution ranging from 1000 nM to 0.15 nM in the assay medium, were added to the plate. After 48 h of incubation, solution from each well were collected and transferred to individual 1.5 mL centrifuge tubes, and then 5 ng/mL deuterated testosterone (D3-testosterone) and 50 ng/mL deuterated pregnenolone (D4-pregnenolone) in 200 μL acetonitrile were added. After vigorously mixing for 5 min, the mixture was centrifuged at 12,700 rpm for 15 min. An aliquot of 250 μL supernatant was collected and dried under N2 stream. After addition of 150 μL Methanol:water (1:1, v/v) to the dried product, 50 μL sample of this solution was injected into the LC-MS/MS system for analysis.
(§2) The half-maximal inhibitory concentration (IC50) for steroid biosynthesis inhibition was determined by curve-fitting with the 4-variable inhibitory dose response equation using GraphPad Prism software.
(§3) Testosterone and pregnenolone were analyzed using Shimadzu LC30AD HPLC system (Shimadzu, Kyoto, Japan) coupled with AB SCIEX Qtrap 5500 triple quadrupole mass spectrometer (AB Sciex, Framingham, MA, USA) via ESI interface in the positive ionization mode. An ACQUITY UPLC BEH Shield RP18 column (1.7 μm, 2.1×50 mm, Milford, MA, USA) maintained at 40° C. was used to separate analytes and IS form the sample matrix.
(§4) The mobile phase was a mixture of 10 mM ammonium acetate in water containing 0.2% formic acid (A) and methanol containing 0.2% formic acid (B) at a flow rate of 0.6 mL/min. The gradient program was set as follows: from 0 min to 0.5 min, 60% B; from 0.5 min to 3.5 min, 90% B; from 3.5 min to 4.5 min, 90% B; from 4.51 min to 5.0 min, 60% B. The injection volume was […].
(§5) The MS/MS parameters were set as follows: ion spray voltage, 5500 V; curtain gas, 35 psi; Gas 1, 55 psi; Gas 2: 55 psi; temperature, […]. The optimized multiple reaction monitoring (MRM) fragmentation transitions and MS parameters of each analyte are summarized in Table 1.

In another assay the target is T2, CYP11A1 (Homo sapiens, UniProt P05108).
T2 construct: measuring the cellular production of pregnenolone (P) catalyzed by CYP11A1; host or cells: NCI-H295R
T2 sequence (P05108 40-521): T1 sequence (P05108 40-521)
Description: H295R Steroid Biosynthesis Inhibition Assay - inhibition of pregnenolone (P) production catalyzed by CYP11A1 in NCI-H295R cells. The note with it: 48 h, LC-MS/MS, read-out: Inh. of P IC50. In kind it is cell-based. On the procedure:
as §1, §2, §3, §4, §5

As usually defined, the IC50 is the point on the concentration scale where inhibition reaches its midpoint. Regarding `OC1CCN(c2ccc3cc(CN4Cc5ccccc5C4)ccc3n2)CC1` [Compound 74], the IC50 is at least 101 nM in assay [1] and at least 100 nM on CYP11A1.
The corresponding values for `CC(c1ncc(OCC2CCN(S(C)(=O)=O)CC2)c2ncccc12)N1Cc2ccccc2C1` (centres unmarked) [Compound 12] are at most 40 nM and at most 40 nM.
With `CC(C)(C)NC(=O)N1CCC(c2cnc3cc(CN4Cc5ccccc5C4)ccc3n2)CC1` [Compound 119], the IC50 in assay [1] is 41 to 100 nM; at CYP11A1, at most 40 nM.
Consider `CS(=O)(=O)N1CCC(c2cnc3cc(CN4Cc5ccccc5C4)ccc3c2)CC1` [Compound 69], for which the 50% inhibitory concentration (IC50) (in assay [1]; on CYP11A1) was at most 40 nM throughout.
For the compound `CS(=O)(=O)N1CCC(c2ccc3oc(CN4Cc5ccccc5C4)cc(=O)c3n2)CC1` [Compound 58], the IC50 (in assay [1]; on CYP11A1) was at most 40 nM each time.
On to `CS(=O)(=O)N1CCC(N2CCc3cc(CN4Cc5ccccc5C4)ccc3C2=O)CC1` [Compound 64], for which the concentration for half-maximal inhibition (IC50) in assay [1] is 41 to 100 nM; on CYP11A1 it was at most 40 nM.
The corresponding values for `CC(c1cc(=O)c2oc([C@H]3CC[C@H](O)CC3)cc2o1)N1Cc2ccccc2C1` (some centres unmarked) [Compound 31] are at most 40 nM and at most 40 nM.
Regarding `CCS(=O)(=O)N1CCC(c2cnc3cc(CN4Cc5ccccc5C4)ccc3n2)CC1` [Compound 91], the half-inhibitory concentration (IC50) (in assay [1]; on CYP11A1) was at most 40 nM each time.
On to `O=C(C(F)F)N1CCC(c2cnc3cc(CN4Cc5ccccc5C4)ccc3n2)CC1` [Compound 103], for which the IC50 in assay [1] is at least 101 nM; on CYP11A1, 40 to 100 nM.
The like results for `O=S1(=O)CCC(c2cnc3cc(CN4Cc5ccccc5C4)ccc3n2)CC1` [Compound 124] were, in that order, at least 101 nM and at least 100 nM.
For `CS(=O)(=O)N1CCC(c2ccc3nc(CN4Cc5ccccc5C4)cc(=O)n3c2)CC1` [Compound 59], the IC50 (in assay [1]; at CYP11A1) was at most 40 nM throughout.
Regarding `O=C(c1ncccn1)N1CCC(c2cnc3cc(CN4Cc5ccccc5C4)ccc3n2)CC1` [Compound 105], the IC50 was at least 101 nM in assay [1] and 40 to 100 nM at CYP11A1.
The like results for `CCCCS(=O)(=O)N1CCC(c2cnc3cc(CN4Cc5ccccc5C4)ccc3n2)CC1` [Compound 93] were, in that order, at most 40 nM and at most 40 nM.
The like results for `CS(=O)(=O)N1CC=C(c2coc3cc(CN4Cc5ccccc5C4)ccc3c2=O)CC1` [Compound 65] were, in that order, at most 40 nM and at most 40 nM.
On to `CS(=O)(=O)N1CCC(c2cnc3cc(CN4Cc5ccccc5C4)ccc3n2)CC1` [Compound 55, 6-(isoindolin-2-ylmethyl)-2-(1-(methylsulfonyl)piperidin-4-yl)quinoxaline], for which the IC50 (in assay [1]; on CYP11A1) was at most 40 nM each time.
As for `CS(=O)(=O)N1CCC(c2ccc3cc(CN4Cc5ccccc5C4)ncc3c2)CC1` [Compound 68], the IC50 (in assay [1]; on CYP11A1) was at most 40 nM in each case.
Consider `COC(=O)N[C@H]1CC[C@H](c2cc3oc(CN4Cc5ccccc5C4)cc(=O)c3o2)CC1` [Compound 45], for which the IC50 (in assay [1]; on CYP11A1) was at most 40 nM each time.
`Cc1ccc2c(c1)CN(Cc1cc(=O)c3oc(C4CCN(S(C)(=O)=O)CC4)cc3o1)C2` [Compound 18]: the IC50 (in assay [1]; at CYP11A1) was at most 40 nM throughout.
`CS(=O)(=O)N1CCC(c2cc3oc(CN4Cc5ccc(F)cc5C4)cc(=O)c3o2)CC1` [Compound 17]: the IC50 (in assay [1]; on CYP11A1) was at most 40 nM each time.
With `CC(C)(O)[C@H]1CC[C@H](c2cc3oc(CN4Cc5ccccc5C4)cc(=O)c3o2)CC1` [Compound 32], the IC50 in assay [1] was at most 40 nM; on CYP11A1, 40 to 100 nM.
The like results for `O=S(=O)(c1ccccc1)N1CCC(c2cnc3cc(CN4Cc5ccccc5C4)ccc3n2)CC1` [Compound 98] were, in that order, at most 40 nM and at most 40 nM.
The like results for `Cc1oc(CN2Cc3ccccc3C2)cc(=O)c1OCC1CCN(S(C)(=O)=O)CC1` [Compound 6] were, in that order, 41 to 100 nM and at most 40 nM.
For the compound `O=c1cc(CN2Cc3ccccc3C2)oc2cc([C@H]3CC[C@@](O)(C(F)(F)F)CC3)oc12` [Compound 37], the 50% inhibitory concentration (IC50) in assay [1] was at most 40 nM; on CYP11A1, 40 to 100 nM.
For `O=c1cc(CN2Cc3ccccc3C2)oc2cc(C3CCC(O)C3)oc12` (centres unmarked) [Compound 35], the half-maximal inhibitory concentration (IC50) in assay [1] was 41 to 100 nM; on CYP11A1 it was at most 40 nM.
The like results for `CS(=O)(=O)N1CCCC(c2cc3oc(CN4Cc5ccccc5C4)cc(=O)c3o2)C1` (centres unmarked) [Compound 16] were, in that order, at least 101 nM and 40 to 100 nM.
`N#C[C@]1(c2cc3oc(CN4Cc5ccccc5C4)cc(=O)c3o2)CC[C@H](O)CC1` [Compound 43]: the values for the 50% inhibitory concentration (IC50) (in assay [1]; on CYP11A1) were 41 to 100 nM and at most 40 nM, respectively.
The like results for `O=c1cc(CN2Cc3ccccc3C2)oc2cc(C3CC4(CC(O)C4)C3)oc12` (centres unmarked) [Compound 24] were, in that order, at most 40 nM and at most 40 nM.
On to `CS(=O)(=O)N1CCC(c2ccc3oc(CN4Cc5ccccc5C4)cc(=O)c3c2)CC1` [Compound 57], for which the IC50 (in assay [1]; at CYP11A1) was at most 40 nM in each case.
Take `CS(=O)(=O)N1CCC(c2cnc3cc(CN4Cc5ccc(OC(F)F)cc5C4)ccc3n2)CC1` [Compound 89]: the IC50 (in assay [1]; on CYP11A1) was at most 40 nM in each case.
In the case of `CS(=O)(=O)N[C@H]1CC[C@H](c2cc3oc(CN4Cc5ccccc5C4)cc(=O)c3o2)CC1` [Compound 44], the IC50 (in assay [1]; on CYP11A1) was at most 40 nM each time.
For the compound `O=c1cc(CN2Cc3ccccc3C2)oc2cc(C3CC4(COC4)C3)oc12` [Compound 25], the IC50 (in assay [1]; on CYP11A1) was at most 40 nM throughout.
As to `CS(=O)(=O)N1CCC(c2cnc3cc(CN4Cc5ccccc5C4)cnc3c2)CC1` [Compound 80], the IC50 (in assay [1]; on CYP11A1) was at most 40 nM each time.
In the case of `CS(=O)(=O)N1CCC(c2ccc3cc(CN4Cc5ccccc5C4)ccc3n2)CC1` [Compound 71], the IC50 (in assay [1]; on CYP11A1) was at most 40 nM throughout.
For the compound `O=C(c1ncc[nH]1)N1CCC(c2cnc3cc(CN4Cc5ccccc5C4)ccc3n2)CC1` [Compound 107], the IC50 in assay [1] was at least 101 nM; at CYP11A1, 40 to 100 nM.
Turning to `COC(=O)N1CCC(c2cc3oc(CN4Cc5ccccc5C4)cc(=O)c3o2)CC1` [Compound 15], the IC50 (in assay [1]; at CYP11A1) was at most 40 nM each time.
Take `CS(=O)(=O)N1C[C@@H]2[C@H](C1)[C@H]2c1cnc2cc(CN3Cc4ccccc4C3)ccc2n1` [Compound 86]: the concentration for half-maximal inhibition (IC50) in assay [1] was 41 to 100 nM; on CYP11A1, at most 40 nM.
Take `CS(=O)(=O)N1CCC(c2ccc3cc(CN4CCn5cccc5C4)ccc3n2)CC1` [Compound 76]: the IC50 is at least 101 nM in assay [1] and 40 to 100 nM at CYP11A1.
The corresponding values for `CS(=O)(=O)N1CC=C(c2ccc3nc(CN4Cc5ccccc5C4)cnc3c2)CC1` [Compound 81] are 41 to 100 nM and at most 40 nM.
Consider `CNC(=O)N1CCC(c2cnc3cc(CN4Cc5ccccc5C4)ccc3n2)CC1` [Compound 115], for which the IC50 (in assay [1]; at CYP11A1) was at most 40 nM throughout.
For `O[C@H]1CC[C@H](c2nc3cc(CN4Cc5ccccc5C4)ccc3o2)CC1` [Compound 127], the half-maximal inhibitory concentration (IC50) (in assay [1]; on CYP11A1) was at most 40 nM in each case.

Values taken from US20260327234A1, “NOVEL COMPOUNDS AS CYP11A1 INHIBITORS AND METHODS OF USE THEREOF” (Shenzhen Ionova Life Science Co., Ltd., priority 2023, published 2026).
